# Measured values taken from patent publication US20150087627A1, “COMBINATION OF KINASE INHIBITORS AND USES THEREOF” (Intellikine LLC, priority 2011, published 2015).
# pIC50: −log10 of the molar value. Where two headings read alike, the source gives them in different places.
# Columns and labels:
# Format in all cases: biochemical
# mTOR = biological target: T1, mTOR (Homo sapiens, UniProt P42345); assay: mTOR kinase inhibition assay (radiometric or LanthaScreen TR-FRET); details: read-out: mTORC IC50
# T1 construct: purchased Invitrogen
# T1 sequence (P42345 1360-2549 limits assumed): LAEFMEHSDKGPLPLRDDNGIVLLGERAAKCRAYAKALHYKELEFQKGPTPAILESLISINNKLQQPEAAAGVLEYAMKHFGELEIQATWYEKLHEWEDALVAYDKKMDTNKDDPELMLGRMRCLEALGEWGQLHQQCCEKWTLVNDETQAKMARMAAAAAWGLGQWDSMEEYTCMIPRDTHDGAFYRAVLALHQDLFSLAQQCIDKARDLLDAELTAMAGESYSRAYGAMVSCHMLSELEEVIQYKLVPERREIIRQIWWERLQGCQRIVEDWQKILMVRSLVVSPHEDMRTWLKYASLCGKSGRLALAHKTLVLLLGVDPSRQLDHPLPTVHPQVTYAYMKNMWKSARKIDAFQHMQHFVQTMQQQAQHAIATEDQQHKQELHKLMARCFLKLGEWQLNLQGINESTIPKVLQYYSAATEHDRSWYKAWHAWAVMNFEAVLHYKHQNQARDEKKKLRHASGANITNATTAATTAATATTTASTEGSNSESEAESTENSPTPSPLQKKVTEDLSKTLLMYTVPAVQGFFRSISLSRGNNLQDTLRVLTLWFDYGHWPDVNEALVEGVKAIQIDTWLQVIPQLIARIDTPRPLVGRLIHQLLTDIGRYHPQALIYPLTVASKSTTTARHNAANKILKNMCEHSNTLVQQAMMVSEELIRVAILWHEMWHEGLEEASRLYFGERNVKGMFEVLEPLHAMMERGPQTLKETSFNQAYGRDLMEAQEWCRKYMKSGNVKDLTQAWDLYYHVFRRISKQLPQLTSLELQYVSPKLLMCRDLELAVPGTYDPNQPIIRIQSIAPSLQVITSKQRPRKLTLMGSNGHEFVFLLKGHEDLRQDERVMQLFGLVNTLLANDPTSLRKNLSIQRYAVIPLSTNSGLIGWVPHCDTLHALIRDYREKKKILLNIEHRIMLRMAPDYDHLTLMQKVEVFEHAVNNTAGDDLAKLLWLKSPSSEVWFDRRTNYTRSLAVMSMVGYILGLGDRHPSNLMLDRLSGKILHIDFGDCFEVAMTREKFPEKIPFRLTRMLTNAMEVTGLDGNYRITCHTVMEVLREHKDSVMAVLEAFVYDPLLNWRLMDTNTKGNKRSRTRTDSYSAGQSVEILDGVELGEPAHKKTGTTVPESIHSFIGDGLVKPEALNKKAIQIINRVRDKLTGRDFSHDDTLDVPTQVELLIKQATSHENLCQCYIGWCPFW
# PI3K α (p110α/p85α) = biological target: T2, PI3K α (p110α/p85α) (Homo sapiens, UniProt P42336); assay: PI 3-Kinase (human) HTRF assay, PI3K α; details: read-out: PI3K α IC50
# T2 construct: purchased Upstate / Millipore Corporation
# PI3K β (p110β/p85α) = biological target: T3, PI3K β (p110β/p85α) (Homo sapiens, UniProt P42338); assay: PI 3-Kinase (human) HTRF assay, PI3K β; details: read-out: PI3K β IC50
# T3 construct: purchased Upstate / Millipore Corporation
# T3 sequence (P42338 whole entry): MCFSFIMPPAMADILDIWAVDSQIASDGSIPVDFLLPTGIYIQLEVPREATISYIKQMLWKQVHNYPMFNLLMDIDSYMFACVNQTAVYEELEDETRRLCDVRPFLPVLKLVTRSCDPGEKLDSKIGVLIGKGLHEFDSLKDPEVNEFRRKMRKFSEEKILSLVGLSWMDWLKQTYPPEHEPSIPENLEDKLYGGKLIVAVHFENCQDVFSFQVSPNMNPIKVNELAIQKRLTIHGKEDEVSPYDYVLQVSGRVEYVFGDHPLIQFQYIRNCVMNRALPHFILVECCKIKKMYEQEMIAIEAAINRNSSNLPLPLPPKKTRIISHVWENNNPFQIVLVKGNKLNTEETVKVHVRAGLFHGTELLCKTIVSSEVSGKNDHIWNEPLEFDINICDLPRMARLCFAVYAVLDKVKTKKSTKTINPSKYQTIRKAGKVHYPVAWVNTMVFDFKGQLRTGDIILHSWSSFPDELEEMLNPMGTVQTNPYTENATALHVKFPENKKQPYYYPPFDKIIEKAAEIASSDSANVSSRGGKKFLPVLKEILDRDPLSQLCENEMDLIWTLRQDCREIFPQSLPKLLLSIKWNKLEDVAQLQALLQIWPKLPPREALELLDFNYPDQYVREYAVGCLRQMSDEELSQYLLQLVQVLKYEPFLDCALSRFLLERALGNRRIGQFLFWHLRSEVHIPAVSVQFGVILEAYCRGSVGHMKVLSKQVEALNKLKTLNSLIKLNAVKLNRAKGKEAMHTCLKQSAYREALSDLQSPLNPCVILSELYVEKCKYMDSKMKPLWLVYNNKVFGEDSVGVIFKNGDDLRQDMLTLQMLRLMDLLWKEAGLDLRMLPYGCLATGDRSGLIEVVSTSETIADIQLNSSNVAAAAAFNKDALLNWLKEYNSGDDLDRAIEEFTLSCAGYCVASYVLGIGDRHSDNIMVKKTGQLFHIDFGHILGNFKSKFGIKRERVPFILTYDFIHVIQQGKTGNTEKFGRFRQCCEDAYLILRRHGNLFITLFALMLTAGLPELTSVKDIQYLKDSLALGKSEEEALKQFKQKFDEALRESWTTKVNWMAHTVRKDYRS
# T3 sequence (P27986 whole entry partner): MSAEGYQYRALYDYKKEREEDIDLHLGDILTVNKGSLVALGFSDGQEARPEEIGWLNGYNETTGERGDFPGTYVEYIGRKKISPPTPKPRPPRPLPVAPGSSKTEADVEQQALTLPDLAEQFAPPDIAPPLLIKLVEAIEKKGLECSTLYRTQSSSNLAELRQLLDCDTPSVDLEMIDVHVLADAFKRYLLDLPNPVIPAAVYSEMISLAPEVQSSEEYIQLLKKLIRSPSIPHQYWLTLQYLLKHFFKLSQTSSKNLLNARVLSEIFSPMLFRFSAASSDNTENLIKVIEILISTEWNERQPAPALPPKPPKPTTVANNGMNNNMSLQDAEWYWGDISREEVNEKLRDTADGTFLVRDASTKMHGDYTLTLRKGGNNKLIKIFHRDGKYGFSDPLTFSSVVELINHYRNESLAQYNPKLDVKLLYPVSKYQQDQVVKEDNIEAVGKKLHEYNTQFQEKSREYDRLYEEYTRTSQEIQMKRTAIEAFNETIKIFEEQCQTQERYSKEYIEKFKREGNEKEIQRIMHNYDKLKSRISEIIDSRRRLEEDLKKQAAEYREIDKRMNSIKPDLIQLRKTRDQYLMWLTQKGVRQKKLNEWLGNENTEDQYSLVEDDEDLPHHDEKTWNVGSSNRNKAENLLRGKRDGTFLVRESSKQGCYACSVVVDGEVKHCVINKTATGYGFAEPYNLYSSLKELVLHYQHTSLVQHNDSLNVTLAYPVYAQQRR
# PI3K δ = biological target: T4, PI3K δ (Homo sapiens, UniProt O00329); assay: PI 3-Kinase (human) HTRF assay, PI3K δ; details: read-out: PI3K δ IC50
# T4 construct: purchased Upstate / Millipore Corporation
# T4 sequence (O00329 whole entry): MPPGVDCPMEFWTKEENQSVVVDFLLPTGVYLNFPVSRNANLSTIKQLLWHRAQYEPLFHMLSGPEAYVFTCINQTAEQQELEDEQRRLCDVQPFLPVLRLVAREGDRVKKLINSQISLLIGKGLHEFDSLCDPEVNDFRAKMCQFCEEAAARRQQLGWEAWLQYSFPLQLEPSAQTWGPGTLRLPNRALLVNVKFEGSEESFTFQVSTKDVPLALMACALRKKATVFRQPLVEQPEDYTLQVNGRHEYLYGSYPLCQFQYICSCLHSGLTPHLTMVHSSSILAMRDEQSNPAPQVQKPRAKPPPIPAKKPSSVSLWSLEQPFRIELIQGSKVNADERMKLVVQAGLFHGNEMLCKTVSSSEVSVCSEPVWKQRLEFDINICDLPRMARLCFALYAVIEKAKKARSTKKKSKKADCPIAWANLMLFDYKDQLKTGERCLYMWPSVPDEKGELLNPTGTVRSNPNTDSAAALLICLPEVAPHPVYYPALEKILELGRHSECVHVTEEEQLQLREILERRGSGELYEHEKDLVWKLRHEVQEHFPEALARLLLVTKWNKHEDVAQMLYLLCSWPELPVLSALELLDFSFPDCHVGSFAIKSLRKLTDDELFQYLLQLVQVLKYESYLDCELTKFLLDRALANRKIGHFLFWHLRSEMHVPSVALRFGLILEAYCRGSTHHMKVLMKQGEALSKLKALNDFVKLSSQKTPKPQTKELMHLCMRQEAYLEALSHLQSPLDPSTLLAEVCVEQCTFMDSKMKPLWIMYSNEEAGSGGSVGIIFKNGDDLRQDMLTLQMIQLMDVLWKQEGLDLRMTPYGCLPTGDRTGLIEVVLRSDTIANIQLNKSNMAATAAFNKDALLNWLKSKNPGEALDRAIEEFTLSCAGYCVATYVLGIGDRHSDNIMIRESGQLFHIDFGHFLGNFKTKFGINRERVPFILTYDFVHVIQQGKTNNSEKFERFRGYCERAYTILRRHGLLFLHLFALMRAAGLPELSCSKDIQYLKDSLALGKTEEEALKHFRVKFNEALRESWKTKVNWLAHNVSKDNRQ
# T4 sequence (P27986 whole entry partner): as the sequence (P27986 whole entry partner) above
# PI3K γ (p110γ) = biological target: T5, PI3K γ (p110γ) (Homo sapiens, UniProt P48736); assay: PI 3-Kinase (human) HTRF assay, PI3K γ; details: read-out: PI3K γ IC50
# T5 construct: purchased Upstate / Millipore Corporation
SMILES,pIC50 (mTOR),pIC50 (PI3K α (p110α/p85α)),pIC50 (PI3K β (p110β/p85α)),pIC50 (PI3K δ),pIC50 (mTOR; Table 4 (PI3K α inhibitors)),pIC50 (PI3K α (p110α/p85α); Table 4 (PI3K α inhibitors)),pIC50 (PI3K γ (p110γ); Table 4 (PI3K α inhibitors)),pIC50 (PI3K δ; Table 4 (PI3K α inhibitors)),pIC50 (PI3K β (p110β/p85α); Table 4 (PI3K α inhibitors)),pIC50 (PI3K γ (p110γ))
Nc1nc2cccc(-c3ccc4nccc(-c5ccncc5)c4c3)c2o1 [Compound 15],> 7.00,> 7.00,> 7.00,> 6.00,–,–,–,–,–,–
Nc1nc2cc(-c3ccc4ncnc(OC5CCOCC5)c4c3)ccc2o1 [Compound 47],> 7.00,> 7.00,> 6.00,> 6.00,–,–,–,–,–,–
CN1CCN(C2CN(c3cnc4ccc(-c5ccc6oc(N)nc6c5)nc4c3)C2)CC1=O [Compound 615],–,–,–,–,> 5.00,> 7.00,> 7.00,> 6.00,–,–
CC(C)N1CCN(c2cnc3ccc(-c4ccc5oc(N)nc5c4)nc3c2)CC1 [Compound 595],–,–,–,–,< 5.00,> 7.00,> 6.00,> 6.00,> 6.00,–
CN1CCN([C@@H]2CCN(c3cnc4ccc(-c5ccc6oc(N)nc6c5)cc4n3)C2)CC1 [Compound 379],> 5.00,> 7.00,> 6.00,> 5.00,–,–,–,–,–,< 5.00
Nc1ncc(-c2ccc3oc(N)nc3c2)cn1 [Compound 233],< 5.00,< 5.00,< 5.00,< 5.00,–,–,–,–,–,> 5.00
Nc1nc2cc(-c3ccc4ncc(N5CC(N6CC[C@H](O)C6)C5)nc4c3)ccc2o1 [Compound 322],< 5.00,> 7.00,> 6.00,–,–,–,–,–,–,> 6.00
Nc1nc2cc(-c3ccc4ncc(N5CC(N6CCN(CCO)CC6)C5)cc4n3)ccc2o1 [Compound 616],–,–,–,–,< 5.00,> 7.00,> 6.00,> 6.00,–,–
Nc1nc2cc(-c3ccc4ncn(C5CCOCC5)c(=O)c4c3)ccc2o1 [Compound 55],< 5.00,> 6.00,–,< 5.00,–,–,–,–,–,< 5.00
Nc1nc2cc(-c3cccc4[nH]nc(N)c34)ccc2o1 [Compound 236],< 5.00,< 5.00,< 5.00,–,–,–,–,–,–,< 5.00
CN1CCN(C2CN(c3cnc4ccc(-c5ccc6oc(N)nc6c5)cc4n3)C2)CC1 [Compound 274],> 5.00,> 7.00,> 5.00,> 5.00,–,–,–,–,–,–
Nc1nc2cc(-c3ccc4ncc(N5CC(N6CCOCC6)C5)nc4n3)ccc2o1 [Compound 556],–,–,–,–,> 5.00,> 7.00,–,–,< 5.00,–
Nc1ncc2cc(-c3ccc4nccc(-c5ccncc5)c4c3)ccc2n1 [Compound 9],< 5.00,> 6.00,> 5.00,–,–,–,–,–,–,> 6.00
CS(=O)(=O)Nc1cc(-c2ccc3ncc(C(=O)N4CCOCC4)n3c2)cnc1Cl [Compound 418],> 7.00,> 7.00,> 7.00,> 7.00,–,–,–,–,–,–
C[C@H]1COCCN1C1CN(c2cnc3ccc(-c4ccc5oc(N)nc5c4)nc3n2)C1 [Compound 612],–,–,–,–,< 5.00,> 7.00,–,–,< 5.00,–
Nc1nc2cc(-c3ccc4ncc(N5CC(N6CCOCC6)C5)nc4c3)ccc2o1 [Compound 273],> 6.00,> 7.00,< 5.00,< 5.00,–,–,–,–,–,–
CN1CCN(C(=O)c2cnc3ccc(-c4ccc5oc(N)nc5c4)cn23)CC1 [Compound 44],> 5.00,> 7.00,–,> 5.00,–,–,–,–,–,> 5.00
CN(C)[C@@H]1CCN(c2cnc3ccc(-c4ccc5oc(N)nc5c4)cc3n2)C1 [Compound 378],> 6.00,> 7.00,> 7.00,> 5.00,–,–,–,–,–,–
CC(C)(N)C(=O)N1CCN(c2cnc3ccc(-c4ccc5oc(N)nc5c4)nc3n2)CC1 [Compound 591],–,–,–,–,< 5.00,> 7.00,–,–,–,–
CC(C)Oc1nc(-c2ccc3oc(N)nc3c2)cnc1N [Compound 237],> 6.00,> 5.00,> 5.00,–,–,–,–,–,–,> 5.00
CC1(C)CN(C2CN(c3cnc4ccc(-c5ccc6oc(N)nc6c5)nc4n3)C2)CCN1 [Compound 603],–,–,–,–,< 5.00,> 7.00,–,> 6.00,–,–
Cc1nccn1C1CN(c2cnc3ccc(-c4ccc5oc(N)nc5c4)nc3n2)C1 [Compound 601],–,–,–,–,< 5.00,> 7.00,–,–,–,–
Cn1cc(-c2ccnc3ccc(-c4ccc5oc(N)nc5c4)cc23)cn1 [Compound 26],> 6.00,> 7.00,–,> 7.00,–,–,–,–,–,> 7.00
Nc1ncnc2ccc(-c3ccc4nccc(-c5ccncc5)c4c3)cc12 [Compound 8],< 5.00,> 5.00,< 5.00,–,–,–,–,–,–,> 6.00
Nc1nc2cc(-c3ccc4ncc(N5CC(N6CCN(CCO)CC6)C5)nc4n3)ccc2o1 [Compound 597],–,–,–,–,< 5.00,> 7.00,–,–,–,–
Nc1nc2cc(-c3ccc4ncc(N5CC(N6CCN(CC7CC7)CC6)C5)nc4n3)ccc2o1 [Compound 586],–,–,–,–,< 5.00,> 7.00,–,–,–,–

SMILES,pIC50 (mTOR),pIC50 (PI3K α (p110α/p85α)),pIC50 (PI3K β (p110β/p85α)),pIC50 (PI3K δ),pIC50 (mTOR; Table 4 (PI3K α inhibitors)),pIC50 (PI3K α (p110α/p85α); Table 4 (PI3K α inhibitors)),pIC50 (PI3K γ (p110γ); Table 4 (PI3K α inhibitors)),pIC50 (PI3K δ; Table 4 (PI3K α inhibitors)),pIC50 (PI3K β (p110β/p85α); Table 4 (PI3K α inhibitors)),pIC50 (PI3K γ (p110γ))
CCN1CCN(C2CN(c3cnc4ccc(-c5ccc6oc(N)nc6c5)nc4n3)C2)CC1 [Compound 627],–,–,–,–,> 5.00,> 7.00,–,–,–,–
CN1CCN(C2CN(c3cnc4ccc(-c5ccc6oc(N)nc6c5)nc4n3)C2)CC1 [Compound 622],–,–,–,–,< 5.00,> 7.00,–,> 6.00,–,–
C[C@H]1CN(C2CN(c3cnc4ccc(-c5ccc6oc(N)nc6c5)nc4n3)C2)CCN1 [Compound 561],–,–,–,–,> 5.00,> 7.00,–,–,< 5.00,–
Nc1nc2cc(-c3ccc4nccn4c3)ccc2o1 [Compound 40],> 5.00,> 5.00,–,< 5.00,–,–,–,–,–,> 5.00
CCN1CCN(C2CN(c3cnc4ccc(-c5ccc6oc(N)nc6c5)nc4c3)C2)CC1 [Compound 626],–,–,–,–,< 5.00,> 7.00,–,> 6.00,> 6.00,–
Nc1nc2cc(-c3ccc4oc(N)nc4c3)ccc2o1 [Compound 240],> 5.00,> 6.00,–,> 5.00,–,–,–,–,–,–
Nc1nc2cc(-c3ccc4ncc(N5CC(N6CCOCC6)C5)cc4n3)ccc2o1 [Compound 604],–,–,–,–,< 5.00,> 7.00,> 6.00,–,–,–
N#Cc1cnc2ccc(-c3ccc4oc(N)nc4c3)cc2c1-c1ccncc1 [Compound 46],> 7.00,> 7.00,–,> 7.00,–,–,–,–,–,> 7.00
Nc1nc2cc(-c3ccc4nc(N)sc4c3)ccc2o1 [Compound 232],> 5.00,> 6.00,> 6.00,> 5.00,–,–,–,–,–,–
C[C@H]1CN(C2CN(c3cnc4ccc(-c5ccc6oc(N)nc6c5)nc4c3)C2)CCN1 [Compound 605],–,–,–,–,< 5.00,> 7.00,–,> 6.00,–,–
N#Cc1cnc2ccc(-c3ccc4oc(N)nc4c3)cc2c1Cl [Compound 77],> 6.00,–,–,–,–,–,–,–,–,–
Nc1nc2cc(-c3ccc4ncc(N5CCNC(C(F)(F)F)C5)nc4c3)ccc2o1 (stereo not shown) [Compound 384],> 6.00,> 7.00,> 6.00,> 5.00,–,–,–,–,–,–
C[C@H]1CN(c2cnc3ccc(-c4ccc5oc(N)nc5c4)nc3c2)CCN1 [Compound 598],–,–,–,–,< 5.00,> 7.00,> 6.00,–,> 7.00,–
C[C@@H]1CN(C2CN(c3cnc4ccc(-c5ccc6oc(N)nc6c5)nc4n3)C2)CCN1 [Compound 563],–,–,–,–,< 5.00,> 7.00,< 5.00,–,< 5.00,–
Nc1nc2cc(-c3ccc4ncc(-c5ccnc(N6CCOCC6)c5)n4c3)ccc2o1 [Compound 52],> 5.00,> 7.00,–,> 7.00,–,–,–,–,–,–
Cc1nccn1C1CN(c2cnc3ccc(-c4ccc5oc(N)nc5c4)nc3c2)C1 [Compound 614],–,–,–,–,< 5.00,> 7.00,> 7.00,> 6.00,–,–
CC(=O)N1CCC(N(C)c2ncnc3ccc(-c4ccc5oc(N)nc5c4)cc23)CC1 [Compound 137],< 5.00,> 7.00,> 6.00,> 6.00,–,–,–,–,–,–
Nc1nc2cc(-c3ccc4nc(N)oc4c3)ccc2o1 [Compound 241],> 5.00,> 6.00,–,> 6.00,–,–,–,–,–,> 7.00
Nc1nc2cc(-c3ccc4ncc(N5CC(N6CCN(CC7CC7)CC6)C5)cc4n3)ccc2o1 [Compound 611],–,–,–,–,< 5.00,> 7.00,–,> 6.00,–,–
CC1(C)CN(C2CN(c3cnc4ccc(-c5ccc6oc(N)nc6c5)nc4c3)C2)CCN1 [Compound 609],–,–,–,–,< 5.00,> 7.00,> 6.00,> 6.00,–,–
CC1(C)CN(C2CN(c3cnc4ccc(-c5ccc6oc(N)nc6c5)cc4n3)C2)CCN1 [Compound 388],> 7.00,> 7.00,> 6.00,> 6.00,–,–,–,–,–,–
CN(C)C1CN(c2cnc3ccc(-c4ccc5oc(N)nc5c4)cc3n2)C1 [Compound 366],–,> 7.00,> 5.00,< 5.00,–,–,–,–,–,> 5.00
Nc1nc2cc(-c3ccc4ncc(-c5ccccc5)nc4c3)ccc2o1 [Compound 180],–,> 6.00,< 5.00,< 5.00,–,–,–,–,–,< 5.00
Nc1nc2cc(-c3ccc4ncc(C(=O)N5CC[C@H](F)C5)n4c3)ccc2o1 [Compound 476],–,> 7.00,< 5.00,< 5.00,–,–,–,–,–,> 7.00
C[C@H]1CN(c2cnc3ccc(-c4ccc5sc(N)nc5c4)cc3n2)CCN1 [Compound 307],–,> 6.00,> 6.00,< 5.00,–,–,–,–,–,< 5.00
